Source: US20240425478A1, “CYCLOPENTYLPYRAZOLE CDK2 INHIBITORS” (Genentech, Inc., priority 2021, published 2024)
Where two headings read alike, the source gives them in different places.

What was measured:
[1] = molecular target: T1, Cyclin Dependent Kinase 1/Cyclin A2 (CDK1-cycA2) (Homo sapiens, UniProt P06493); assay: CDK1-cycA2 TR-FRET (Lance) enzyme assay; assay type: biochemical; conditions: for Ki: Table O, enzymatic assay; for FS CDK1/CDK2: fold selectivity, enzymatic Ki ratio
T1 construct: purchased ProQinase 0134-0054-1
Procedure, shortened: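 Human CDK1/cyclin A2 pre-incubated 30 min with compound dose responses in 50 mM HEPES pH 7.5, 10 mM MgCl2, 2 mM TCEP, 0.05% BGG, 0.01% Brij 35. Reaction quenched with EDTA (15 mM final); TR-FRET readout using Eu-anti-phospho-4E-BP1, acceptor/donor ratio. Inhibition constants from Morrison equation.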

[2] = molecular target: T2, Cyclin Dependent Kinase 2/Cyclin E1 (CDK2-cycE1) (Homo sapiens, UniProt P24941); assay: CDK2-cycE1 TR-FRET (LANCE) enzyme assay; assay type: biochemical; conditions: for FS CDK1/CDK2 / FS CDK4/CDK2: fold selectivity; for increased fold-selectivity CDK1/CDK2 over Comparator C: (+) sign after FS CDK1/CDK2; for increased fold-selectivity CDK4/CDK2 over Comparator C: (+) sign after FS CDK4/CDK2; for CDK2 Ki fold change in potency versus Comparator D / CDK2 Ki fold change in potency versus Comparator E: in brackets after CDK2 Ki;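 on improvement in potency against CDK2 (Ki) over Comparator C: fold lower CDK2 Ki than comparator c (Ki 0.032 µM)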
T2 construct: purchased ProQinase 0050-0055-1
Procedure, shortened: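 Compound dose responses pre-incubated 30 min with CDK2-cycE1 in 50 mM HEPES pH 7.5, 10 mM MgCl2, 2 mM TCEP, 0.05% BGG, 0.01% Brij 35. Reaction quenched with EDTA (15 mM final), phospho-MBP detected by Eu-anti-phospho-MBP TR-FRET (acceptor/donor ratio). Inhibition constants from Morrison equation.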

[3] = molecular target: T3, Cyclin Dependent Kinase 4/Cyclin D3 (CDK4-cycD3) (Homo sapiens, UniProt P11802); assay: CDK4-cycD3 TR-FRET (LANCE) enzyme assay; assay type: biochemical; conditions: for Ki: Table O, enzymatic assay; for FS CDK4/CDK2: fold selectivity, enzymatic Ki ratio
T3 construct: purchased Carna Biosciences 04-105
Procedure, shortened: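 Compound dose responses pre-incubated 30 min with enzyme mix in 50 mM HEPES pH 7.5, 10 mM MgCl2, 2 mM TCEP, 0.05% BGG, 0.01% Brij 35. Reaction quenched with EDTA (15 mM final); Eu-anti-phospho-4E-BP1 TR-FRET detection, acceptor/donor ratio. Ki derived by Morrison equation.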

[4] = test system: OVISE (JCRB1043, CCNE1-amplified); assay: OVISE EdU incorporation cell proliferation assay (CDK2-dependent); assay type: cell-based; conditions: for IC50: cellular assay, read-out: CDK2 OVISE IC50; for FS SKOV-3/OVISE / FS p-H3/OVISE: fold selectivity; for FS p-H3/OVISE: cellular p-H3 IC50 over OVISE IC50; for increased fold-selectivity SKOV-3/OVISE over Comparator C: (+) sign after FS SKOV-3/OVISE; for improvement in CDK2 OVISE cell potency over Comparator C / CDK2 OVISE IC50 fold change in potency versus Comparator D / CDK2 OVISE IC50 fold change in potency versus Comparator E: in brackets after OVISE IC50; for improvement in CDK2 OVISE cell potency over Comparator C: Comparator C 5.5 μM; for CDK2 OVISE IC50 fold change in potency versus Comparator D: Table R; for CDK2 OVISE IC50 fold change in potency versus Comparator E: Table S
Procedure, shortened: (§1)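 Cells in RPMI/10% FBS dosed with compound (0.5% DMSO final) for 16 h at 37 °C, 5% CO2, then EdU 0.5 μM final for 8 h before fixation and imaging. IC50 from 4-parameter logistic fit of EdU-positive cell fraction versus dose.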

SKOV-3 (ATCC HTB-77) = assay: SKOV-3 EdU incorporation cell proliferation assay (CDK4/6-dependent); assay type: cell-based; conditions: for IC50: Homo sapiens, cellular assay, read-out: CDK4/6 SKOV-3 IC50; for FS SKOV-3/OVISE: fold selectivity, cellular IC50 ratio
Procedure, shortened: as §1

HCT116 cells = assay: p-H3 HCT-116 mitotic release cell proliferation assay (cellular CDK1); assay type: cell-based; conditions: Homo sapiens, HCT-116; Table O, cellular assay; read-out: CDK1 p-H3 IC50
Procedure, shortened: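 HCT116 cells arrested 16 h with 500 nM nocodazole, then exposed to compound for 4 h at 37 °C (0.1% DMSO). Lysates read by HTRF/FRET with donor and acceptor phospho-Histone H3 (Ser10) antibodies, ≥2 h at room temperature; CDK1 inhibition seen as loss of p-H3 on mitotic release.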

[5] = Table O, enzymatic assay, read-out: CDK2 Ki
[6] = Table O, enzymatic CDK1 Ki over CDK2 Ki
[7] = Table O, enzymatic CDK4 Ki over CDK2 Ki
[8] = Table Q, enzymatic assay, read-out: CDK2 Ki
[9] = read-out: CDK2 activity / potency (enzymatic assay)
[10] = Table O, cellular SKOV-3 IC50 over OVISE IC50
[11] = Table R, enzymatic assay, read-out: CDK2 Ki
[12] = Table S, enzymatic assay, read-out: CDK2 Ki

T1 sequence (P06493 whole entry): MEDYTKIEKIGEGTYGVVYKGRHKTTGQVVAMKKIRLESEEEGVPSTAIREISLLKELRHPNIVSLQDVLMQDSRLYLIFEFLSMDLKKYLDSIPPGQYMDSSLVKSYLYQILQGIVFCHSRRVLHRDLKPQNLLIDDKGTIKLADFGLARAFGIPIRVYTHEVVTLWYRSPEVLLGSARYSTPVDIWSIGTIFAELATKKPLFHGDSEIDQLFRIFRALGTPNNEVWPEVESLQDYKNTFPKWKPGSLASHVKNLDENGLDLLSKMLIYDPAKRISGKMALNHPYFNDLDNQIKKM
T1 sequence (P20248 whole entry partner): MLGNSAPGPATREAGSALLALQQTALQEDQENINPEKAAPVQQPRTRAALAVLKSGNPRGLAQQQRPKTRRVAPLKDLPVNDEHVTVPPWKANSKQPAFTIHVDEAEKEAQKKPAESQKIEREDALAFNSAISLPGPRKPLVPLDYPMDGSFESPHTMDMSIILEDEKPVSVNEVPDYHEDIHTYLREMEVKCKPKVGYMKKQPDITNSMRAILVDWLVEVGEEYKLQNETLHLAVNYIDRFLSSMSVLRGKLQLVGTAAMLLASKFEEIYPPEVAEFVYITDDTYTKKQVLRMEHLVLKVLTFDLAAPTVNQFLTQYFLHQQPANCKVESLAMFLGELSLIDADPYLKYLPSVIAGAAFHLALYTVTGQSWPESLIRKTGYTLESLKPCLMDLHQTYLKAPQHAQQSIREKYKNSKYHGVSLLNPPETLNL
T3 sequence (P11802 whole entry): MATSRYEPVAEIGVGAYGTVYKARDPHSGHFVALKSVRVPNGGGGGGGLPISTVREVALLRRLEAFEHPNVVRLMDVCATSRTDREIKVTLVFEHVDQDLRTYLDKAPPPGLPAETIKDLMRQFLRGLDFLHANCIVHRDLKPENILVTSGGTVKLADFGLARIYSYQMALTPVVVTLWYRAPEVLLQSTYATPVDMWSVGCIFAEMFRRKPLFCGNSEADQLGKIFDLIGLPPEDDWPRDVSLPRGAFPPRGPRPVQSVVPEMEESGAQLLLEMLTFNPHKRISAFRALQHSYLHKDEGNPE
T3 sequence (P30281 whole entry partner): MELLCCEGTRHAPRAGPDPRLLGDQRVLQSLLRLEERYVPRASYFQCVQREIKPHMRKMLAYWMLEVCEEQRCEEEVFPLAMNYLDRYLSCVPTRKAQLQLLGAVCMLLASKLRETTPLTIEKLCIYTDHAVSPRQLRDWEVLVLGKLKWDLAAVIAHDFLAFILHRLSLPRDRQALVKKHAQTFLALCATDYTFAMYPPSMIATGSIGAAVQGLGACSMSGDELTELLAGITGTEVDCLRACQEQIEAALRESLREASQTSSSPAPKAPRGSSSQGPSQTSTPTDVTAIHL

Row | Structure (SMILES) | Ki [1] | improvement in potency against CDK2 (Ki) over Comparator C [2] | Ki [2, 5] | FS CDK1/CDK2 [2, 6] | FS CDK4/CDK2 [2, 7] | increased fold-selectivity CDK4/CDK2 over Comparator C ([2]; Table Q) | Ki [2, 8] | FS CDK1/CDK2 ([2]; Table Q, enzymatic) | FS CDK4/CDK2 ([2]; Table Q, enzymatic) | Ki [3] | IC50 ([4]; Table O) | FS SKOV-3/OVISE [4, 10] | FS p-H3/OVISE ([4]; Table O) | increased fold-selectivity SKOV-3/OVISE over Comparator C ([4]; Table Q) | FS SKOV-3/OVISE ([4]; Table Q, cellular) | improvement in CDK2 OVISE cell potency over Comparator C ([4]; Table Q) | IC50 (SKOV-3 (ATCC HTB-77); SK-OV-3, Table O) | IC50 (SKOV-3 (ATCC HTB-77); SK-OV-3, Table Q) | IC50 (HCT116 cells) | FS CDK1/CDK2 increased over Comparator D, (+) sign ([1]; Table R) | other results
1 | CC(C)NC(=O)O[C@@H]1CC[C@H](c2cc(Nc3cnccn3)n[nH]2)C1 [Example 2E, (1R,3S)-3-(3-(pyrazin-2-ylamino)-1H-pyrazol-5-yl)cyclopentyl isopropylcarbamate] | 8.4 nM | 246 fold | 0.13 nM | 65 | 57 | (+) (The (+) sign in Table Q signifies desirable increased fold-selectivity of the exemplary compounds over Comparator C) | 0.13 nM | 65 | 57 | 7.4 nM | 16 nM | 8.1 | 0.88 | (+) (The (+) sign in Table Q signifies desirable increased fold-selectivity of the exemplary compounds over Comparator C) | 8.1 | 344 fold | 130 nM | 130 nM | 14 nM | – | increased fold-selectivity CDK1/CDK2 over Comparator C ([2]; Table Q): (+) (The (+) sign in Table Q signifies desirable increased fold-selectivity of the exemplary compounds over Comparator C); Ki [2, 9]: ≤ 1 nM
2 | Cc1cncc(Nc2cc([C@H]3CC[C@@H](OC(=O)NC(C)C)C3)[nH]n2)c1 [Example 2K, (1R,3S)-3-(3-((5-methylpyridin-3-yl)amino)-1H-pyrazol-5-yl)cyclopentyl isopropylcarbamate] | 59 nM | 10 fold | 3.2 nM | 18 | 110 | (+) (The (+) sign in Table Q signifies desirable increased fold-selectivity of the exemplary compounds over Comparator C) | 3.2 nM | 18 | 110 | 340 nM | 190 nM | 41 | 0.46 | (+) (The (+) sign in Table Q signifies desirable increased fold-selectivity of the exemplary compounds over Comparator C) | 41 | 28.9 fold | 7700 nM | 7700 nM | 87 nM | – | –
3 | Cc1ccc(Nc2cc([C@H]3CC[C@@H](OC(=O)NC(C)(C)C)C3)[nH]n2)cn1 [Example 4B, (1R,3S)-3-(3-((6-methylpyridin-3-yl)amino)-1H-pyrazol-5-yl)cyclopentyl tert-butylcarbamate] | 20 nM | – | 0.52 nM | 38 | 37 | – | – | – | – | 19 nM | 33 nM | 12 | 0.70 | – | – | – | 390 nM | – | 23 nM | (+) | FS CDK1/CDK2 ([1]; Table R): 38; FS CDK1/CDK2 ([1]; Table S): 38; Ki [2, 11]: 0.52 nM; CDK2 Ki fold change in potency versus Comparator D ([2]; Table R): 5.2 fold; Ki [2, 12]: 0.52 nM; CDK2 Ki fold change in potency versus Comparator E ([2]; Table S): 1 fold; Ki [2, 9]: ≤ 1 nM; FS CDK4/CDK2 increased over Comparator D, (+) sign ([3]; Table R): (+); FS CDK4/CDK2 ([3]; Table R): 37; FS CDK4/CDK2 ([3]; Table S): 37; CDK2 OVISE IC50 fold change in potency versus Comparator D [4]: 115 fold; CDK2 OVISE IC50 fold change in potency versus Comparator E [4]: 5.2 fold; FS SKOV-3/OVISE increased over Comparator D, (+) sign (SKOV-3 (ATCC HTB-77); Table R): (+); FS SKOV-3/OVISE (SKOV-3 (ATCC HTB-77); Table R): 12; FS SKOV-3/OVISE (SKOV-3 (ATCC HTB-77); Table S): 12
4 | CC(C)NC(=O)O[C@@H]1CC[C@H](c2cc(Nc3ccnc(N)n3)n[nH]2)C1 [Example 2G, (1R,3S)-3-(3-((2-aminopyrimidin-4-yl)amino)-1H-pyrazol-5-yl)cyclopentyl isopropylcarbamate] | 88 nM | 21 fold | 1.5 nM | 59 | 100 | (+) (The (+) sign in Table Q signifies desirable increased fold-selectivity of the exemplary compounds over Comparator C) | 1.5 nM | 59 | 100 | 150 nM | 280 nM | 36 | 1.0 | (+) (The (+) sign in Table Q signifies desirable increased fold-selectivity of the exemplary compounds over Comparator C) | 36 | 19.6 fold | 10000 nM | 10000 nM | 280 nM | – | increased fold-selectivity CDK1/CDK2 over Comparator C ([2]; Table Q): (+) (The (+) sign in Table Q signifies desirable increased fold-selectivity of the exemplary compounds over Comparator C)
5 | CNC(=O)c1ccnc(Nc2cc([C@H]3CC[C@@H](OC(=O)NC(C)(C)C)C3)[nH]n2)c1 [Example 4F, (1R,3S)-3-(3-((4-(methylcarbamoyl)pyridin-2-yl)amino)-1H-pyrazol-5-yl)cyclopentyl tert-butylcarbamate] | 52 nM | – | 2.5 nM | 21 | 15 | – | – | – | – | 37 nM | 190 nM | 8.9 | 0.35 | – | – | – | 1700 nM | – | 66 nM | (+) | FS CDK1/CDK2 ([1]; Table R): 21; FS CDK1/CDK2 ([1]; Table S): 21; Ki [2, 11]: 2.5 nM; CDK2 Ki fold change in potency versus Comparator D ([2]; Table R): 1.1 fold; Ki [2, 12]: 2.5 nM; CDK2 Ki fold change in potency versus Comparator E ([2]; Table S): 0.2 fold; FS CDK4/CDK2 increased over Comparator D, (+) sign ([3]; Table R): (+); FS CDK4/CDK2 ([3]; Table R): 15; FS CDK4/CDK2 ([3]; Table S): 15; CDK2 OVISE IC50 fold change in potency versus Comparator D [4]: 20 fold; CDK2 OVISE IC50 fold change in potency versus Comparator E [4]: 0.9 fold; IC50 (SKOV-3 (ATCC HTB-77); SK-OV-3, Table R): 1700 nM; IC50 (SKOV-3 (ATCC HTB-77); SK-OV-3, Table S): 1700 nM; FS SKOV-3/OVISE increased over Comparator D, (+) sign (SKOV-3 (ATCC HTB-77); Table R): (+); FS SKOV-3/OVISE (SKOV-3 (ATCC HTB-77); Table R): 8.9; FS SKOV-3/OVISE (SKOV-3 (ATCC HTB-77); Table S): 8.9
6 | Cn1nc(Nc2cc([C@H]3CC[C@@H](OC(=O)NC(C)(C)C)C3)[nH]n2)ccc1=O [Example 6C, (1R,3S)-3-(3-((1-methyl-6-oxo-1,6-dihydropyridazin-3-yl)amino)-1H-pyrazol-5-yl)cyclopentyl tert-butylcarbamate] | 3.6 nM | – | < 0.1 nM | >47 | >584 | – | – | – | – | 45 nM | 30 nM | 50 | 0.087 | – | – | – | 1500 nM | – | 26 nM | (+) | FS CDK1/CDK2 ([1]; Table R): > 47; FS CDK1/CDK2 increased over Comparator E, (+) sign ([1]; Table S): (+); FS CDK1/CDK2 ([1]; Table S): > 47; Ki [2, 11]: < 0.1 nM; CDK2 Ki fold change in potency versus Comparator D ([2]; Table R): 27 fold; Ki [2, 12]: < 0.1 nM; CDK2 Ki fold change in potency versus Comparator E ([2]; Table S): 5.2 fold; FS CDK4/CDK2 increased over Comparator D, (+) sign ([3]; Table R): (+); FS CDK4/CDK2 ([3]; Table R): > 584; FS CDK4/CDK2 increased over Comparator E, (+) sign ([3]; Table S): (+); FS CDK4/CDK2 ([3]; Table S): > 584; CDK2 cell potency compared with Comparator E ([4]; CDK2 OVISE cellular assay data): more potent CDK2 cell inhibitors compared to Comparator E; CDK2 OVISE IC50 fold change in potency versus Comparator D [4]: 127 fold; CDK2 OVISE IC50 fold change in potency versus Comparator E [4]: 5.7 fold; selectivity for CDK2 over CDK4 compared with Comparator E (SKOV-3 (ATCC HTB-77); SKOV-3/OVISE fold-selectivity cellular assay data): increase in selectivity for CDK2 over CDK4; FS SKOV-3/OVISE increased over Comparator D, (+) sign (SKOV-3 (ATCC HTB-77); Table R): (+); FS SKOV-3/OVISE (SKOV-3 (ATCC HTB-77); Table R): 50; FS SKOV-3/OVISE increased over Comparator E, (+) sign (SKOV-3 (ATCC HTB-77); Table S): (+); FS SKOV-3/OVISE (SKOV-3 (ATCC HTB-77); Table S): 50
